Measured values taken from the supplement of paper PMC10307832.

Columns and labels:
Experiment in all cases: relative viability (nuclei count vs DMSO), 5 days (fraction); higher = more cells survive
[1] = compound: CC1=C(C=C(C=C1)NC(=O)C2=CC(=CC=C2)C(C)(C)C#N)NC3=CC4=C(C=C3)N=CN(C4=O)C [AZ628] + C[C@@H](Oc1cc(-c2cnn(C3CCNCC3)c2)cnc1N)c1c(Cl)ccc(F)c1Cl [Crizotinib] (partner 1 µM)
How it was run: (§1)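 Relative viability was taken as the ratio of nuclei in treated wells to nuclei in vehicle wells. Lung cancer cell lines in 1536-well plates received compounds by pin tool one day after seeding, either one drug alone or a fixed anchor-drug dose plus five library-drug doses (not always all listed) in √10 steps. Nuclei were counted on 4× images after 5 days of treatment, and values are medians of duplicate plates.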

[2] = compound: CC1=C(C=C(C=C1)NC(=O)C2=CC(=CC=C2)C(C)(C)C#N)NC3=CC4=C(C=C3)N=CN(C4=O)C [AZ628] + Cc1nc(Nc2ncc(C(=O)Nc3c(C)cccc3Cl)s2)cc(N2CCN(CCO)CC2)n1 [Dasatinib] (partner 0.075 µM)
How it was run: as §1

[3] = compound: C1CC2=C(C1)C=C(C=C2)OC3=NC(=C4C(=N3)N(C=N4)CC5=CC=C(C=C5)C6=CC=CC=C6)N[C@@H](CC7=CC=CC=C7)CO [QS11] + CC(C)C[C@H](NC(=O)[C@H](Cc1ccccc1)NC(=O)c1cnccn1)B(O)O [Bortezomib] (partner 0.002 µM)
How it was run: as §1

[4] = compound: CC1=C(C=C(C=C1)NC(=O)C2=CC(=CC=C2)C(C)(C)C#N)NC3=CC4=C(C=C3)N=CN(C4=O)C [AZ628] + CC(C)C[C@H](NC(=O)[C@H](Cc1ccccc1)NC(=O)c1cnccn1)B(O)O [Bortezomib] (partner 0.002 µM)
How it was run: as §1

Row | Cell Line | relative viability ([1]; first compound 0.08 µM) | relative viability ([1]; first compound 0.253 µM) | relative viability ([1]; first compound 0.8 µM) | relative viability ([1]; first compound 2.53 µM) | relative viability ([1]; first compound 8 µM) | relative viability ([2]; first compound 0.08 µM) | relative viability ([2]; first compound 0.253 µM) | relative viability ([2]; first compound 0.8 µM) | relative viability ([2]; first compound 2.53 µM) | relative viability ([2]; first compound 8 µM) | relative viability ([3]; first compound 0.08 µM) | relative viability ([3]; first compound 0.253 µM) | relative viability ([3]; first compound 0.8 µM) | relative viability ([3]; first compound 2.53 µM) | relative viability ([3]; first compound 8 µM) | relative viability ([4]; first compound 0.08 µM) | relative viability ([4]; first compound 0.253 µM) | relative viability ([4]; first compound 0.8 µM) | relative viability ([4]; first compound 2.53 µM) | relative viability ([4]; first compound 8 µM)
1 | NCI-H1755 | 0.809 | 0.818 | 0.786 | 0.811 | 0.769 | 0.459 | 0.39 | 0.417 | 0.381 | 0.326 | 0.953 | 0.893 | 0.605 | 0.76 | 0.61 | 0.947 | 0.878 | 0.909 | 0.942 | 0.818
2 | NCI-H650 | 0.771 | 0.73 | 0.553 | 0.68 | 0.599 | 0.529 | 0.487 | 0.463 | 0.558 | 0.434 | 0.681 | 0.625 | 0.815 | 0.819 | 0.888 | 1.2 | 1.05 | 1.32 | 0.744 | 1.02
3 | SW 1573 | 0.664 | 0.587 | 0.707 | 0.598 | 0.425 | 0.535 | 0.422 | 0.381 | 0.434 | 0.302 | 0.957 | 1.07 | 0.971 | 1.12 | 0.837 | 0.952 | 0.911 | 0.886 | 0.946 | 0.621
4 | NCI-H322M | 0.819 | 1.04 | 1.01 | 0.795 | 0.856 | 0.28 | 0.261 | 0.264 | 0.231 | 0.268 | 1.31 | 1.04 | 1.27 | 1.4 | 1.63 | 1.36 | 1.46 | 1.28 | 1.38 | 1.11
5 | ABC-1 | 1.37 | 1.25 | 0.844 | 1.02 | 0.808 | 0.592 | 0.412 | 0.583 | 0.516 | 0.52 | 0.309 | 0.399 | 0.319 | 0.324 | 0.278 | 0.307 | 0.314 | 0.364 | 0.344 | 0.315
6 | NCI-H1993 | 0.933 | 0.943 | 0.873 | 0.77 | 0.729 | 0.556 | 0.546 | 0.613 | 0.578 | 0.553 | 0.959 | 1 | 1.04 | 1.35 | 0.998 | 1.1 | 1.03 | 0.932 | 0.711 | 0.815
7 | NCI-H1355 | 1.04 | 1.05 | 0.971 | 0.89 | 0.768 | 0.723 | 0.663 | 0.611 | 0.626 | 0.458 | 1.2 | 1.19 | 0.862 | 1.21 | 1.13 | 1.21 | 1.03 | 1.12 | 1.12 | 1.1
8 | PC-3 [JPC-3] | 0.941 | 1.04 | 1 | 1.06 | 0.922 | 0.936 | 0.893 | 1.02 | 1.05 | 0.604 | 0.827 | 0.88 | 0.767 | 0.828 | 0.678 | 0.778 | 0.924 | 0.9 | 0.801 | 0.857
